In patent publication US20250099420A1, “SMALL MOLECULE MODULATORS OF GPR139 COMPLEX” (University of Florida Research Foundation, Incorporated, priority 2022, published 2025):
Where two headings read alike, the source gives them in different places.

How the values were obtained:
parental HEK cells = assay: HEK parental Agonist Counterscreen Assay (non-transfected cells); format: cell-based; conditions: for Averaged Max % Response (±St. Dev.): activity relative to known control
Text: The high control for the agonist counterscreen was Forskolin not acetylcholine.

GPR139 = target: T1, GPR139 (Homo sapiens, UniProt Q6DWJ6); assay: GPR139 Agonist titration / agonist counterscreen assay (calcium detection, HEK-GPR139 cells); format: cell-based; parameters: expressed in transfected cells; host or cells: HEK Aequorin cells, Maxcyte transient transfection; conditions: GPR139 Agonist Activity; for EC50: read-out: EC50; for Averaged Max % Response (±St. Dev.): activity relative to known control
T1 sequence (Q6DWJ6 1-353): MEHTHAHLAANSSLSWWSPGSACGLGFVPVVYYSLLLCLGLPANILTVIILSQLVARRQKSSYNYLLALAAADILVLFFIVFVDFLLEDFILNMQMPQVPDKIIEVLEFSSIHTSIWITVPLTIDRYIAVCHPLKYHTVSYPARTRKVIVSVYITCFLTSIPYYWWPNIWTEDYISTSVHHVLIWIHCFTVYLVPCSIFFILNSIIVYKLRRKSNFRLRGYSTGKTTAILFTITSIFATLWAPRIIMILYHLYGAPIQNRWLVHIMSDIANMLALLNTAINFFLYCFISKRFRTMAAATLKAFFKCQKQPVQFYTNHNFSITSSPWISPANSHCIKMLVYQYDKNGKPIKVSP
Description: GPR activity was assessed using a calcium detection assay. […] Negative control samples were treated with DMSO. […] Intracellular calcium was measured using Calcium 5.

[1] = Homo sapiens, HEK293, HEK Agonist Activity section of Table 4 (parental HEK counterscreen)
[2] = values printed in E-notation without unit
[3] = Homo sapiens, HEK293, HEK Agonist Activity, parental non-transfected HEK cells
[4] = HEK Agonist Activity section of Table 4 (parental HEK counterscreen)

Structure (SMILES) | Lipophilic Efficiency (logD) (parental HEK cells; HEK Agonist Activity section) | Lipophilic Efficiency (logP) (parental HEK cells; HEK Agonist Activity section) | Efficiency Ligand (GPR139) | Hill Slope (GPR139) | Lipophilic Efficiency (logD) (GPR139) | Lipophilic Efficiency (logP) (GPR139) | EC50 (GPR139; HEK-GPR139 cells) [µM] | Averaged Max % Response (±St. Dev.) (GPR139) [%] | Lipophilic Efficiency (logD) (GPR139; based on logD) | Lipophilic Efficiency (logP) (GPR139; based on logP) | Hill Slope (GPR139; fitted dose-response curve) | Efficiency Ligand (GPR139; ligand efficiency) | EC50 (GPR139; [2]) [µM] | Averaged Max % Response (±St. Dev.) (parental HEK cells; HEK Agonist Activity section) [%] | EC50 (parental HEK cells; [1]) [µM] | further results
O=C(NC1CC1)C1CC(Cc2cccc3ccccc23)=NO1 (stereo not drawn) [SR-01000188699] | 2.02 | 2.02 |  |  |  |  |  | 112.57 ± 11.99 | 4.37 | 4.37 | 1.05 | 0.46 | 0.0638 | 4.63 ± 6.30 | > 14.1 | 
O=C1N2CN(Cc3ccccc3)CN3C(=O)N4CN(Cc5ccccc5)CN1C4C23 (stereo not drawn) [SR-01000090996] | 2.07 | 2.07 |  |  |  |  |  | 117.44 ± 4.30 | 4.52 | 4.52 | 1.21 | 0.34 | 0.0493 | −5.40 ± 6.26 | > 14.1 | 
Cc1cc(Cl)ccc1OC(C)C(=O)NNC(=O)c1ccccc1 (stereo not drawn) [SR-01000013313] |  |  |  |  |  |  |  | 93.40 ± 11.14 | 4.45 | 4.44 | 0.63 | 0.48 | 0.0133 |  |  | Lipophilic Efficiency (logD) (parental HEK cells; HEK Agonist Activity): 1.41; Lipophilic Efficiency (logP) (parental HEK cells; HEK Agonist Activity): 1.40; Averaged Max % Response (±St. Dev.) (parental HEK cells; HEK Agonist Activity): 2.95 ± 4.76%; EC50 (parental HEK cells; [3]): > 14.4 µM
Cc1c(Br)c([N+](=O)[O-])nn1CC(=O)NCCc1ccc(Cl)cc1 [SR-01000298170] |  |  |  |  |  |  |  | 119.00 ± 5.31 | 4.08 | 4.08 | 0.27 | 0.46 | 0.0316 |  |  | Lipophilic Efficiency (logD) (parental HEK cells; HEK Agonist Activity): 1.44; Lipophilic Efficiency (logP) (parental HEK cells; HEK Agonist Activity): 1.44; Averaged Max % Response (±St. Dev.) (parental HEK cells; HEK Agonist Activity): 10.66 ± 2.50%; EC50 (parental HEK cells; [3]): > 14.1 µM
Cc1c(Cl)c([N+](=O)[O-])nn1CC(=O)NC(C)COc1ccccc1 (stereo not drawn) [SR-01000318171] | 2.16 | 2.16 | 0.36 | 1.01 | 3.49 | 3.49 | 0.656 | 76.40 ± 3.97 |  |  |  |  |  | 6.88 ± 5.68 | > 14.1 | 
Cc1ccc(C2(C)NC(=O)N(CC(=O)NCC(C)C)C2=O)cc1 (stereo not drawn) [SR-01000048367] |  |  |  |  |  |  |  | 122.38 ± 5.77 | 5.64 | 5.64 | 0.74 | 0.45 | 0.0365 |  |  | Lipophilic Efficiency (logD) (parental HEK cells; HEK Agonist Activity): 3.00; Lipophilic Efficiency (logP) (parental HEK cells; HEK Agonist Activity): 3.00; Averaged Max % Response (±St. Dev.) (parental HEK cells; HEK Agonist Activity): 8.71 ± 14.83%; EC50 (parental HEK cells; [3]): > 16 µM
COc1ccccc1NC(=O)C(=O)NNC(=O)COc1ccc(Br)cc1C [SR-01000325257] | 2.48 | 2.44 | 0.29 | 0.69 | 3.27 | 3.22 | 2.3 | 66.69 ± 11.44 |  |  |  |  |  | −2.80 ± 2.96 | > 14.1 | 
Cc1cc(C)c(/C=C2/NC(=N)NC2=O)c(C)c1 [SR-01000218376] | 1.45 | 1.45 |  |  |  |  |  | 76.44 ± 0.80 | 3.82 | 3.82 | 0.92 | 0.59 | 0.0605 | 1.93 ± 7.79 | > 14.1 | 
Cc1cc(C)c2c(CC(=O)NNC(=O)COc3ccccc3)coc2c1 [SR-01000301649] | 1.94 | 1.93 |  |  |  |  |  | 93.20 ± 6.78 | 3.92 | 3.92 | 0.91 | 0.37 | 0.145 | 14.38 ± 10.96 |  | EC50 (parental HEK cells; [4]): > 14.1 µM

Further lines, with some results ahead:

Lipophilic Efficiency (logD) (parental HEK cells; HEK Agonist Activity section) | Lipophilic Efficiency (logP) (parental HEK cells; HEK Agonist Activity section) | Efficiency Ligand (GPR139) | Hill Slope (GPR139) | Lipophilic Efficiency (logD) (GPR139) | Lipophilic Efficiency (logP) (GPR139) | EC50 (GPR139; HEK-GPR139 cells) [µM] | Averaged Max % Response (±St. Dev.) (GPR139) [%] | Lipophilic Efficiency (logD) (GPR139; based on logD) | Lipophilic Efficiency (logP) (GPR139; based on logP) | Hill Slope (GPR139; fitted dose-response curve) | Efficiency Ligand (GPR139; ligand efficiency) | EC50 (GPR139; [2]) [µM] | Structure (SMILES) | Averaged Max % Response (±St. Dev.) (parental HEK cells; HEK Agonist Activity section) [%] | EC50 (parental HEK cells; [1]) [µM] | further results
1.68 | 1.68 | 0.34 | 0.88 | 2.98 | 2.98 | 0.701 | 96.08 ± 11.27 |  |  |  |  |  | COc1cccc(COC(=O)NC(C)C2COc3ccccc3O2)c1 (stereo not drawn) [SR-01000362527] | 12.25 ± 2.76 | > 14.1 | 
0.80 | 0.80 | 0.28 |  | 1.75 | 1.75 | > 1.5 | 96.78 ± 10.47 |  |  |  |  |  | Cc1cccc(-n2cnc3cc(C(=O)NCc4ccc5c(c4)OCO5)ccc32)c1 [SR-01000579592] | −14.67 ± 10.75 | > 13.3 | 
1.84 | 1.80 | 0.31 | 0.74 | 3.44 | 3.40 | 0.352 | 113.87 ± 14.45 |  |  |  |  |  | COc1cc(C(=O)NNC(=O)C(C)Oc2ccc(Cl)cc2Cl)cc(OC)c1OC (stereo not drawn) [SR-01000644888] | 30.23 ± 7.95 | > 14.1 | 
2.17 | 2.17 | 0.30 | 1.38 | 3.11 | 3.10 | 1.6 | 84.08 ± 9.93 |  |  |  |  |  | O=C(COc1ccc2ccccc2c1)NNC(=O)c1cccc([N+](=O)[O-])c1 [SR-01000362228] | −0.15 ± 6.76 |  | EC50 (parental HEK cells; [4]): > 14.1 µM
3.42 | 3.42 | 0.31 | 0.79 | 4.98 | 4.98 | 0.387 | 69.93 ± 11.99 |  |  |  |  |  | CCCC(=O)C1CCC(C(=O)CC2CCC(c3ccc(C(C)O)cc3)C2=O)CC1 (stereo not drawn) [SR-01000924775] | 10.92 ± 3.68 | > 14.1 | 
 |  |  |  |  |  |  | 92.66 ± 5.93 | 4.45 | 4.45 | 0.62 | 0.40 | 0.0194 | COc1cc(-c2nnc(COc3ccc(Cl)cc3C)o2)cc(OC)c1OC [SR-01000504687] |  |  | Lipophilic Efficiency (logD) (parental HEK cells; HEK Agonist Activity): 1.65; Lipophilic Efficiency (logP) (parental HEK cells; HEK Agonist Activity): 1.65; Averaged Max % Response (±St. Dev.) (parental HEK cells; HEK Agonist Activity): −3.10 ± 6.59%; EC50 (parental HEK cells; HEK Agonist Activity, parental non-transfected HEK cells): > 12.2 µM
1.53 | 1.50 |  |  |  |  |  | 89.14 ± 2.93 | 3.38 | 3.35 | 0.85 | 0.36 | 0.197 | COc1ccc(CC(=O)NNC(=O)C(C)Oc2ccc(Cl)cc2Cl)cc1 (stereo not drawn) [SR-01000361779] | 9.57 ± 4.06 | > 14.1 | 
